# Literature values as cited in patent US20040067256A1, “Novel modified release formulation” (priority 2001, published 2004).
# Where two headings read alike, the source gives them in different places.
# Settings: ambient temperature of 22-25° C.
water-solubility (physiological pH),water-solubility,SMILES
about 0.0046 mg/ml,–,"CC(O)(CS(=O)(=O)c1ccc(F)cc1)C(=O)Nc1ccc(C#N)c(C(F)(F)F)c1 (racemic) [bicalutamide, 4′-cyano-α′,α′,α′-trifluoro-3-(4-fluorophenylsulphonyl)-2-hydroxy-2-methylpropiono-m-toluidide]"
–,about 0.5 μg/ml,"CCOC(=O)C1=C(C)NC(C)=C(C(=O)OC)C1c1cccc(Cl)c1Cl (centres unmarked) [Felodipine, 2,6-dimethyl-4-(2,3-dichlorophenyl)-1,4-dihydropyridine-3,5-dicarboxylic acid-3-methyl ester-5-ethyl ester]"
